In the supplement of paper PMC13207355:

What was measured:
Conditions in all cases: exposure time: 72 h
E13 [1] = patient-derived glioblastoma stem cells of classical subtype; experiment: surviving fraction (nuclei count normalised to DMSO); higher = more cells surviving (less toxic)
E21 [2] = patient-derived glioblastoma stem cells of mesenchymal subtype; experiment: as above
E28 [3] = patient-derived glioblastoma stem cells of classical subtype; experiment: as above
E34 [4] = patient-derived glioblastoma stem cells of proneural subtype; experiment: as above
E57 [5] = patient-derived glioblastoma stem cells of mesenchymal subtype; experiment: as above
FT3469 [6] = normal neural stem cell line; experiment: as above
E13 [7] = experiment: phenotypic distance (Euclidean, principal components) from DMSO controls (arbitrary units); higher = stronger morphological change
E21 [8] = experiment: as above
E28 [9] = experiment: as above
E34 [10] = experiment: as above
E57 [11] = experiment: as above
FT3469 [12] = experiment: as above
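Throughout, for phenotypic distance (Euclidean, principal components) from DMSO controls: cell Painting imaging in 384-well plates, CellProfiler features reduced to at least 20 principal components, Euclidean distance versus same-plate DMSO vehicle wells (0.1% v/v), median over six images per well.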
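Throughout, for surviving fraction (nuclei count normalised to DMSO): nuclei counted by high-content imaging of Hoechst-stained cells in laminin-coated 384-well plates, relative to 0.1% DMSO vehicle wells, with staurosporine as cell-death control.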

COc1cc2c(NC3CCN(C(C)C)CC3)nc(C3CCCCC3)nc2cc1OCCCN1CCCC1 [UNC0638]
Conditions | phenotypic distance | surviving fraction
E13 [1], 4.1 nM | – | 0.973
E13 [1], 12.3 nM | – | 0.986
E13 [1], 37 nM | – | 0.987
E13 [1], 111.1 nM | – | 0.957
E13 [1], 333.3 nM | – | 1.01
E13 [1], 1000 nM | – | 0.938
E13 [1], 3000 nM | – | 0.894
E13 [7], 4.1 nM | 0.43 | –
E13 [7], 12.3 nM | 0.523 | –
E13 [7], 37 nM | 0.48 | –
E13 [7], 111.1 nM | 0.587 | –
E13 [7], 333.3 nM | 0.476 | –
E13 [7], 1000 nM | 0.582 | –
E13 [7], 3000 nM | 1.57 | –
E21 [2], 4.1 nM | – | 0.976
E21 [2], 12.3 nM | – | 0.999
E21 [2], 37 nM | – | 1.11
E21 [2], 111.1 nM | – | 1.02
E21 [2], 333.3 nM | – | 0.976
E21 [2], 1000 nM | – | 0.933
E21 [2], 3000 nM | – | 0.808
E21 [8], 4.1 nM | 0.389 | –
E21 [8], 12.3 nM | 0.354 | –
E21 [8], 37 nM | 0.463 | –
E21 [8], 111.1 nM | 1.99 | –
E21 [8], 333.3 nM | 0.574 | –
E21 [8], 1000 nM | 0.957 | –
E21 [8], 3000 nM | 2.1 | –
E28 [3], 4.1 nM | – | 1.03
E28 [3], 12.3 nM | – | 0.988
E28 [3], 37 nM | – | 1.01
E28 [3], 111.1 nM | – | 1.01
E28 [3], 333.3 nM | – | 0.967
E28 [3], 1000 nM | – | 1.03
E28 [3], 3000 nM | – | 0.942
E28 [9], 4.1 nM | 0.389 | –
E28 [9], 12.3 nM | 0.447 | –
E28 [9], 37 nM | 0.394 | –
E28 [9], 111.1 nM | 0.488 | –
E28 [9], 333.3 nM | 0.53 | –
E28 [9], 1000 nM | 0.586 | –
E28 [9], 3000 nM | 1.38 | –
E34 [4], 4.1 nM | – | 0.998
E34 [4], 12.3 nM | – | 1.1
E34 [4], 37 nM | – | 1.082
E34 [4], 111.1 nM | – | 1.07
E34 [4], 333.3 nM | – | 1.15
E34 [4], 1000 nM | – | 1.07
E34 [4], 3000 nM | – | 0.964
E34 [10], 4.1 nM | 0.461 | –
E34 [10], 12.3 nM | 0.632 | –
E34 [10], 37 nM | 0.627 | –
E34 [10], 111.1 nM | 0.646 | –
E34 [10], 333.3 nM | 0.795 | –
E34 [10], 1000 nM | 0.627 | –
E34 [10], 3000 nM | 0.864 | –
E57 [5], 4.1 nM | – | 1.03
E57 [5], 12.3 nM | – | 1.02
E57 [5], 37 nM | – | 1.084
E57 [5], 111.1 nM | – | 1.01
E57 [5], 333.3 nM | – | 1.0497
E57 [5], 1000 nM | – | 1.08
E57 [5], 3000 nM | – | 1.05
E57 [11], 4.1 nM | 0.284 | –
E57 [11], 12.3 nM | 0.449 | –
E57 [11], 37 nM | 0.421 | –
E57 [11], 111.1 nM | 0.484 | –
E57 [11], 333.3 nM | 0.486 | –
E57 [11], 1000 nM | 0.443 | –
E57 [11], 3000 nM | 1.09 | –
FT3469 [6], 4.1 nM | – | 1.03
FT3469 [6], 12.3 nM | – | 1.02
FT3469 [6], 37 nM | – | 0.961
FT3469 [6], 111.1 nM | – | 0.975
FT3469 [6], 333.3 nM | – | 0.953
FT3469 [6], 1000 nM | – | 0.929
FT3469 [6], 3000 nM | – | 0.864
FT3469 [12], 4.1 nM | 0.514 | –
FT3469 [12], 12.3 nM | 0.766 | –
FT3469 [12], 37 nM | 0.527 | –
FT3469 [12], 111.1 nM | 0.558 | –
FT3469 [12], 333.3 nM | 0.523 | –
FT3469 [12], 1000 nM | 0.714 | –
FT3469 [12], 3000 nM | 3.19 | –

CCn1c(-c2nonc2N)nc2cnc(Oc3cccc(NC(=O)c4ccc(OCCN5CCOCC5)cc4)c3)cc21
Conditions | phenotypic distance | surviving fraction
E13 [1], 4.1 nM | – | 0.992
E13 [1], 12.3 nM | – | 0.995
E13 [1], 37 nM | – | 0.9924
E13 [1], 111.1 nM | – | 1.0033
E13 [1], 333.3 nM | – | 1.03
E13 [1], 1000 nM | – | 0.729
E13 [1], 3000 nM | – | 0.633
E13 [7], 4.1 nM | 2.07 | –
E13 [7], 12.3 nM | 2.22 | –
E13 [7], 37 nM | 2.86 | –
E13 [7], 111.1 nM | 2.12 | –
E13 [7], 333.3 nM | 2.126 | –
E13 [7], 1000 nM | 2.51 | –
E13 [7], 3000 nM | 3.08 | –
E21 [2], 4.1 nM | – | 0.933
E21 [2], 12.3 nM | – | 0.948
E21 [2], 37 nM | – | 0.974
E21 [2], 111.1 nM | – | 0.925
E21 [2], 333.3 nM | – | 0.898
E21 [2], 1000 nM | – | 0.613
E21 [2], 3000 nM | – | 0.448
E21 [8], 4.1 nM | 1.88 | –
E21 [8], 12.3 nM | 2.27 | –
E21 [8], 37 nM | 2.12 | –
E21 [8], 111.1 nM | 2.01 | –
E21 [8], 333.3 nM | 1.94 | –
E21 [8], 1000 nM | 2.16 | –
E21 [8], 3000 nM | 2.66 | –
E28 [3], 4.1 nM | – | 0.9684
E28 [3], 12.3 nM | – | 0.977
E28 [3], 37 nM | – | 1.02
E28 [3], 111.1 nM | – | 0.996
E28 [3], 333.3 nM | – | 0.909
E28 [3], 1000 nM | – | 0.619
E28 [3], 3000 nM | – | 0.5398
E28 [9], 4.1 nM | 2.14 | –
E28 [9], 12.3 nM | 2.12 | –
E28 [9], 37 nM | 2.16 | –
E28 [9], 111.1 nM | 2.28 | –
E28 [9], 333.3 nM | 2.41 | –
E28 [9], 1000 nM | 3.356 | –
E28 [9], 3000 nM | 3.1 | –
E34 [4], 4.1 nM | – | 1.12
E34 [4], 12.3 nM | – | 1.14
E34 [4], 37 nM | – | 1.176
E34 [4], 111.1 nM | – | 0.989
E34 [4], 333.3 nM | – | 1.02
E34 [4], 1000 nM | – | 0.887
E34 [4], 3000 nM | – | 0.746
E34 [10], 4.1 nM | 1.73 | –
E34 [10], 12.3 nM | 1.69 | –
E34 [10], 37 nM | 2.04 | –
E34 [10], 111.1 nM | 1.79 | –
E34 [10], 333.3 nM | 1.73 | –
E34 [10], 1000 nM | 1.67 | –
E34 [10], 3000 nM | 2.39 | –
E57 [5], 4.1 nM | – | 1.06
E57 [5], 12.3 nM | – | 1.01
E57 [5], 37 nM | – | 1.01
E57 [5], 111.1 nM | – | 0.996
E57 [5], 333.3 nM | – | 0.86
E57 [5], 1000 nM | – | 0.645
E57 [5], 3000 nM | – | 0.486
E57 [11], 4.1 nM | 0.962 | –
E57 [11], 12.3 nM | 1.68 | –
E57 [11], 37 nM | 0.775 | –
E57 [11], 111.1 nM | 0.817 | –
E57 [11], 333.3 nM | 1.73 | –
E57 [11], 1000 nM | 2.26 | –
E57 [11], 3000 nM | 3.68 | –
FT3469 [6], 4.1 nM | – | 1.18
FT3469 [6], 12.3 nM | – | 1.18
FT3469 [6], 37 nM | – | 1.12
FT3469 [6], 111.1 nM | – | 1.055
FT3469 [6], 333.3 nM | – | 1.06
FT3469 [6], 1000 nM | – | 0.911
FT3469 [6], 3000 nM | – | 0.766
FT3469 [12], 4.1 nM | 2.61 | –
FT3469 [12], 12.3 nM | 1.73 | –
FT3469 [12], 37 nM | 1.75 | –
FT3469 [12], 111.1 nM | 1.587 | –
FT3469 [12], 333.3 nM | 1.48 | –
FT3469 [12], 1000 nM | 1.9 | –
FT3469 [12], 3000 nM | 3.17 | –
